These results are taken from patent US10610535B2 (The Regents of the University of California, priority 2005, dated 2020).

Test [1] relates to spinal cords of mice with EAE. The experiment in a line: Spinal cord histopathology and immunohistochemistry in EAE (Example 5). It is filed as in vivo. The note with it: acute phase of EAE. From the text:
Mice were deeply anesthetized with isoflurane and perfused transcardially with ice-cold 0.9% saline, followed by 10% formalin. Spinal cord columns were removed and postfixed overnight in 10% formalin and cryoprotected with 20% sucrose solution, in PBS. Spinal cords were removed from the column, cut in three parts (cervical, thoracic, and lumbar), and embedded in gelatin/sucrose mix. Spinal cord regions in gelatin were further postfixed and stored in 20% sucrose. Free-floating sections (25 μm thick) were cut coronally with a sliding microtome and collected serially in PBS. […]
To quantify immunostaining results, sections from spinal cord levels T1-T5 were examined, six from each mouse, with n=3 mice per treatment group, for a total of 18 sections per treatment group. […] All images were converted to grayscale and then analyzed by density measurement with ImageJ version 1.29 (the Windows version of NIH Image), downloaded from rsb.info.nih.gov/ij. A fixed threshold range of 0-160 was chosen to highlight the staining signals in normal spinal cord sections, and the total area within this range was measured, averaged, and compared.
Increase in total number of infiltrating cells after induction of EAE was measured by density measurements of DAPI+nuclei in the whole white matter. Neuronal cells were quantified by counting the NeuN+/β3-tubulin+/DAPI+ cells per square millimeter in the whole gray matter. […]

The test system of test [2] is post-partum patient with relapsing remitting multiple sclerosis. The experiment in a line: Case of post-partum relapsing remitting MS patient. The format is in vivo, human. The protocol: A patient was diagnosed as having relapsing remitting multiple sclerosis. Following the delivery of their first child (now […]), the patient was treated only with Copaxone and relapsed at 6 weeks. Following the delivery of their second child (now […]), the patient was again treated with Copaxone alone and again relapsed, this time at 4.5 months. Following a subsequent pregnancy, the patient was treated with 8 mg estriol/day in an attempt to prevent their post partum relapses.
Following the birth of the patient's third child (now 6 months), the patient resumed treatment with Copaxone as before. However, on day 10 post-partum they began taking estriol 8 mg/daily in an oral dosage form. […] Since monthly brain MRIs with gadolinium to detect enhancing MS lesions are more sensitive for inflammatory disease activity than relapses, the patient underwent serial monthly MRIs at post partum months 4, 5, and 6.
The patient doubled the progesterone minipill for 2 weeks to stabilize the endometrium. Otherwise no adverse events have been reported.

Test [3] relates to spinal cords of mice with EAE. The experiment in a line: Spinal cord histopathology and immunohistochemistry in EAE (Example 6). The format is in vivo. From the text:
Mice were deeply anesthetized with isoflurane and perfused transcardially with ice-cold 0.9% saline, followed by 10% formalin. Spinal cord columns were removed and post-fixed overnight in 10% formalin and cryoprotected with 20% sucrose solution in PBS. Spinal cords were removed from the column and cut in 3 parts (cervical, thoracic and lumbar) and embedded in gelatin/sucrose mix. Spinal cord regions in gelatin were further postfixed and stored in 20% sucrose. Free-floating sections (25 μm thick) were cut coronally with a sliding microtome and collected serially in PBS.
Serial sections were mounted on slides and stained with Hematoxylin & eosin (H&E) or Nissl. Consecutive sections were also examined by immunohistochemistry. Briefly, 25 μm free-floating sections were permeabilized in 0.3% Triton X-100 in PBS and blocked with 10% normal goat serum. White matter immunostaining was enhanced by treating sections with 95% ethanol/5% acetic acid for 15 minutes prior to permeabilization and blocking. To detect specific cell types and structures, sections were pre-incubated with primary antibodies in PBS solution containing 2% NGS for 2 hours at room temperature, then overnight at […]. The following primary antibodies were used: anti-133 tubulin and anti-neurofilament-NF200 (monoclonal, Chemicon; polyclonal Sigma Biochemical), anti-neuronal specific nuclear protein (NeuN), anti-CD4S (Chemicon), and anti-MW (Chemicon). The second antibody step was performed by labeling with antibodies conjugated to TRITC, FITC and Cy5 (Vector Labs and Chemicon). IgG-control experiments were performed for all primary antibodies, and no staining was observed under these conditions. To assess the number of cells, a nuclear stain 4′,6-Diamidino-2-phenylindole, DAPI (2 ng/ml; Molecular Probes) was added for 15 minutes prior to final washes after secondary antibody addition. The sections were mounted on slides, dried and coverslipped in fluoromount G (Fisher Scientific).
To quantify immunostaining results, sections from spinal cord levels T1-T5 were examined, six from each mouse, with n=3 mice per treatment group, for a total of 18 sections per treatment group. Images were captured under microscope (4×, 10× or 40×) using the DP70 Image software and a DP70 camera (both from Olympus). Identical tight intensity and exposure times were applied to all photographs from each experimental set. Images from the same areas of spinal cord were compared (TI-IS) and were acquired separately from delineated whole gray and white mailer regions. The middle region of the ventral horn was the focus for gray matter analysis, while the area lateral to the ventral horn was the focus for white matter analysis. Six gray matter and six white matter pictures were collected from the two sides of TI-IS sections (100 jim apart) from three animals in each treatment group. All images were converted to grayscale and then analyzed by density measurement with ImageJ vi 0.29 (the Windows version of NIH Image), downloaded from rsb.info.nih.gov/ij. A fixed threshold range of 0 to 160 was chosen to highlight the staining signals in normal spinal cord sections, and the total area within this range was measured, averaged, and compared.
Increase in total number of infiltrating cells after induction of EAE was measured by density measurements of DAPI nuclei in the whole white matter. Neuronal cells were quantified by counting the NeuN^+/β3-tubulin^+/DAPI^+ cells per mm2 in the whole gray matter. Both white and gray matter assessments occurred in the TI-IS spinal cord sections. Laser scanning confocal microscopic scans at 40× were performed on Mac 3^+/β3-tubulin^+ immunostained spinal cord sections corresponding to levels 11-15 ventral horn. […]

Test [4] has as its system MOG 35-55 stimulated splenocytes. The experiment in a line: Autoantigen specific cytokine production by splenocytes in C57BL/6 EAE (Example 6). The note with it: vs vehicle. It is filed as in vivo, mice. The protocol: (§1) Spleens were harvested either after deep anesthesia prior to perfusion or after euthanasia. Splenocytes were stimulated with the indicated autoantigens at […], and proliferation assessed using standard H3 incorporation assays, as described. Supernatants were collected after 48 and 72 hours, and levels of TNF-i, IFN-γ, 11,6, and 1 L5 were determined by cytometric bead array (BD Biosciences), as described. EAE clinical disease severity was compared between treatment groups using the Friedman test; histopathological changes were assessed using 1×4 ANOVAs; uterine weights, proliferative responses and cytokine levels were compared between treatment groups using Student t-test, and time on rotorod was compared between treatment groups using ANOVA.

The next test concerns SJL mice with EAE. The experiment in a line: PLP 139-151 induced active EAE in SJL mice, relapses. The format is in vivo.
For test [5], the system named is C57BL/6 mice with EAE. The experiment in a line: Clinical severity of MOG 35-55 induced active EAE (Example 6). It is filed as in vivo. The note with it: vs vehicle.
In test [6] the test system is uterus (positive control tissue) of ovariectomized C57BL/6 mice. The experiment in a line: Uterine weights to assess dosing (Example 6). The format is in vivo. As for the experimental part: Uterine weight was used as a positive control to assess dosing of estrogen agonists. Daily subcutaneous injections of vehicle, estradiol, PPT, or DPN, as well as a combination of ITT with DPN, were administered for ten days at indicated doses to ovariectomized mice. Following euthanasia, the uterus was extracted, then fat, connective tissue, and excess fluid removed in order to obtain the uterine weight, as described. EAE clinical disease severity was compared between treatment groups using the Friedman test; histopathological changes were assessed using 1×4 ANOVAs; uterine weights, proliferative responses and cytokine levels were compared between treatment groups using Student t-test, and time on rotorod was compared between treatment groups using ANOVA.

Test [7] concerns C57BL/6 mice with EAE. The experiment in a line: Rotarod testing of motor performance during EAE. The format is in vivo. The protocol:
Motor behavior was tested up to two times per week for each mouse using a rotarod apparatus (Med Associates mc, St. Albans, Vt.). Briefly, animals were placed on a rotating horizontal cylinder for a maximum of 200 seconds. The amount of time the mouse remained walking on the cylinder, without falling, was recorded. Each mouse was tested on a speed of 3-30 rpm and given three trials for any given day. The three trials were averaged to report a single value for an individual mouse, and then averages were calculated for all animals within a given treatment group. The first two trial days, prior to immunization (day 0), served as practice trials.
EAE clinical disease severity was compared between treatment groups using the Friedman test; histopathological changes were assessed using 1×4 ANOVAs; uterine weights, proliferative responses and cytokine levels were compared between treatment groups using Student t-test, and time on rotorod was compared between treatment groups using ANOVA.
In general terms: In the rotarod test animals must keep their balance on a rotating rod.

The test system of test [8] is PLP 139-151 stimulated splenocytes. The experiment in a line: Splenic immune responses (proliferation, cytokines) in SJL mice with EAE. It is filed as in vivo. Particulars: day 52 after disease induction, vs vehicle. The protocol: as §1
[9] abbreviates: day 19 and day 40, vs normal mice.
Where [10] appears, read: early (day 19) and later (day 40) stages of EAE.

On to `CCCc1c(-c2ccc(O)cc2)nn(-c2ccc(O)cc2)c1-c1ccc(O)cc1` [PPT, propyl pyrazole triol], for which the “Decrease of Mac 3+ cells in gray matter compared with vehicle-treated EAE mice” value in test [1] is listed as roughly 65%.
Turning to “glatiramer acetate copolymer-1 [Copaxone]”, the “Time to post-partum relapse” value in test [2] (Copaxone alone, after delivery of second child) was determined as 4.5 months; in test [2] (Copaxone only, after delivery of first child), 6 weeks.
Take `N#CC(Cc1ccc(O)cc1)c1ccc(O)cc1` (centres unmarked) [DPN, Diarylpropionitrile]: in test [3] (ERβ knock out mice with EAE, day 38-40), the “White matter cell density, myelin density, axonal numbers and NeuN+ cells” value is “does not prevent white and gray matter pathology”. Also, the “MBP immunoreactivity in dorsal column (myelin density)” value in [3] (setting [9]) is “no significant decreases”. For the same molecule, the “Neurofilament stained axon numbers in white matter” value in test [3] (setting [9]) is on record as “no significant reduction in axon numbers”. Moreover, the “NeuN+ cell numbers in gray matter” value in test [3] (early (day 19) and later (day 40) time points, vs healthy controls) is “fewer, but not significantly different from those in healthy controls”. In addition, the “CD45 staining in white matter” value in test [3] (early and later time points, vs vehicle treated EAE) is on record as “did not have reduced CD45 staining”. Further, the “Inflammation, white matter cell density (DAPI+ cells) of thoracic cord” value in test [3] (early stage of EAE (day 19), vs vehicle treated EAE) is listed as “not significantly different from those in vehicle treated”; in [3] (later time point (day 40), vs vehicle), “no different from that in vehicle treated”. The “Anti-inflammatory cytokine IL5” value in test [4] (setting [10]) is on record as “not statistically different from vehicle treatment”. Moreover, the “Levels of proinflammatory cytokines (TNFα, IFNγ, and IL6)” value in test [4] (setting [10]) is listed as “not statistically different from vehicle treatment”. In [4], the IL10 production result is “No differences”. Also, in the test on SJL mice with EAE (DPN treated SJL mice, relapses between days 36 and 52, vehicle 10/13), the “Relapses (mice with relapse / mice)” value was 5/13. Further, the “Relapses (percent of mice)” value in the test with SJL mice with EAE (DPN treated SJL mice, relapses between days 36 and 52, vehicle 77%) came to 33%. Moreover, in the test on SJL mice with EAE (DPN vs vehicle, SJL mice), the “Incidence, day of onset, peak clinical scores” value is recorded as “no difference”. Also, the “Clinical scores (EAE 0-5 scale)” value is reported as “not significantly different” in the test on C57BL/6 mice with EAE [5] (DPN 8 mg/kg/day s.c., ovariectomized C57BL/6, early in disease (up to day 20 after induction)); “significantly improved” with C57BL/6 mice with EAE [5] (DPN 8 mg/kg/day s.c., ovariectomized C57BL/6, later during EAE (following day 30 after induction)); “no different” with C57BL/6 mice with EAE [5] (DPN, ovariectomized ERβ KO C57BL/6 mice). Moreover, the “PPT 3.3 mg/kg/day mediated increase in uterine weight” value in test [6] (DPN 8 mg/kg/day in combination with PPT, 10 days) is listed as “antagonized”. For the same molecule, the Uterine weight entry in test [6] (DPN alone 8 mg/kg/day s.c. for 10 days, ovariectomized C57BL/6) is reported as “no effect on uterine weight”. Further, the “Mean time on rotarod (motor function)” value is listed as “no improvement was observed” with C57BL/6 mice with EAE [7] (ERβ KO mice with EAE, later phase of disease) and “significant recovery of motor function” in the test with C57BL/6 mice with EAE [7] (ovariectomized wild type C57BL/6 with EAE, after day 30). In addition, the “Cytokine (TNFα, IFNγ) production during the PLP 139-151 specific response” value in [8] is “No significant differences”. Besides, the “Proliferation during the PLP 139-151 specific response” value in [8] is “No significant differences”.
Take `C[C@]12CC[C@@H]3c4ccc(O)cc4CC[C@H]3[C@@H]1CC[C@@H]2O` [estradiol, 17β-estradiol]: in test [1], the “Decrease of Mac 3+ cells in gray matter compared with vehicle-treated EAE mice” value is reported as roughly 65%.
